Reference: PMC12737022, “Evaluations of Sex Differences in Dosimetry in Rats Following Perfluorohexanesulfonamide (PFHxSA) Oral Exposure” (Toxics, 2025)

What was measured:
[1] = design: method as in PMID 37756184; details: bariatric surgery patients; cited from earlier work
[2] = Ultracentrifugation plasma protein binding assay, human plasma; type: in vitro ADME
Protocol: Human and rat plasma were evaluated for plasma protein binding of PFHxSA and PFHxS using ultracentrifugation. Data generated in human plasma were obtained from an earlier study; for this study, data were generated in rat plasma following the same protocol as described by Smeltz et al.. SD rat plasma (pooled, mixed sex) was obtained from a commercial vendor (BioIVT, Westbury, NY, USA). Briefly, PFHxSA and PFHxS were added to the plasma to achieve a final assay concentration of 10 µM. Following a 1 h 37 °C incubation, 1 mL aliquots from each plasma solution were drawn in triplicate and transferred to polycarbonate ultracentrifuge tubes. These samples underwent ultracentrifugation (Beckman OptimaMax; Beckman Coulter Inc., Indianapolis, IN, USA) at 850,000× g for 4 h at 37 °C; after completion, the aqueous fraction (AF) was collected by transferring the supernatant to a new tube. Two sets of samples of the original PFAS-spiked whole plasma were also collected after a 1 h or a 5 h incubation at 37 °C. […]
Intrinsic hepatic clearance (Clint) and fraction unbound in plasma (fup) were calculated from the experimental point estimate data as described in Dobreniecki et al.. […] Renal clearance was calculated using the glomerular filtration rate (a species-dependent constant) and the fraction unbound in blood (fub), estimated by adjusting the experimental fup for blood/plasma partitioning. […]

[3] = tested on: cytochrome P450 (CYP450) hepatic metabolism enzyme isoforms 3A2, 4A1, and 2J4; design: method as in Mutlu et al. [55]; details: ref Mutlu et al. [55], cited from earlier work
Sprague Dawley rats [4] = experiment: Plasma thyroid hormone quantitation after 5-day oral PFHxSA exposure; type: in vivo, rat
Excerpt: (§1) The plasma and liver samples for this investigation were provided by Mutlu et al.. The study design, including detailed descriptions of animal handling, procedures for dosing, clinical observations, termination, and collection of tissues, is reported elsewhere and is consistent with the ARRIVE guidelines. Briefly, male and female Sprague Dawley (SD) rats (Crl:CD(SD)) (n = 48/sex, 96 total) were purchased from Charles River Laboratory (Raleigh, NC, USA) and allowed to acclimate for ≥5 days before initial dosing. Rats were 8–10 weeks old at the time of exposure. PFHxSA dosing solutions in corn oil were prepared on Day 0 and used over the course of the study. Rats of both sexes (n = 5/sex, dose, and time point, plus eight vehicle controls per sex) were dosed by oral gavage (5 mL/kg body weight) once daily for five days. […] The formulation concentrations decreased from 100 mg/kg/day at half-log10 intervals until the lowest dose level, which was a full log10 interval below the next higher dose, giving eight dose levels (0.01 to 100 mg/kg/day or 0.025 µmol/kg/day to 250 µmol/kg/day) in addition to vehicle controls. Doses were administered in randomized order within ± 1 h on each day of dosing. […] Rats were euthanized 24 h after the last dose. Blood was collected via cardiac puncture with tripotassium ethylene diamine tetraacetic acid (K3EDTA) as an anti-coagulant and centrifuged to collect cell-free plasma. Liver was collected and flash-frozen in liquid nitrogen. Liver, plasma, and dosing formulation samples were frozen at the USEPA Center for Computational Toxicology and Exposure (CCTE), Durham, NC, USA. Tissue samples (plasma and liver, n = 96 each) were stored at ≤−70 °C prior to extraction; dosing formulation samples (n = 9) were stored at −20 °C.
Thyroid hormones (TH) triiodothyronine (T3), reverse triiodothyronine (rT3), and thyroxine (T4) (SI Table S1) were extracted from plasma spiked with ^13C-labeled TH in batches of up to 96 samples, along with an MB, CCV, and LCS for QC. Gibco (Billings, MT, USA) Dulbecco’s Phosphate-Buffered Saline was used as the control matrix. See SI Text S3 for the extraction procedure.
Samples were analyzed as previously described in O’Shaughnessy et al.. Isotope dilution targeted LC/MS/MS was performed using a Sciex (Framingham, MA, USA) 6500+ QTRAP liquid chromatography/linear ion trap mass spectrometer system operated in positive electrospray ionization (ESI) mode with multiple reaction monitoring (MRM) scanning. A Restek (Bellefonte, PA, USA) Raptor Biphenyl column (100 mm × 2.1 mm, 2.6 µm) was used for chromatographic separation with a flow rate of 0.3 mL/min and a 50 °C column temperature. Gradient elution (see SI Table S2) was obtained with 0.1% formic acid in water (H2O) (mobile phase A) and 0.1% formic acid in methanol (MeOH) (mobile phase B). Detection limits for T3, rT3, and T4 were 0.04 ng/mL in plasma. […]
Acceptance criterion for the ICV was a recovery of ± 20% of the nominal concentration of the ICV as quantitated from the calibration curve. Method blank, CCV, and LCS were injected at the beginning of every extraction batch and reinjected after every 30 samples to confirm the validity of the calibration curve and sample quantitation. If fewer than 30 samples were injected, all samples were bracketed by injections of the CCV at the beginning and end of the analysis batch.
Acceptance criteria for the CCV and LCS were ± 30% of nominal concentration. Method blanks were acceptable with PFHxSA signal < 0.5x the LOQ. Samples were injected in order of increasing dose.
Quantitation of PFHxS in liver and plasma was performed using the same QC criteria and extraction methods as PFHxSA, only the internal standard was supplied in the form of a Wellington Laboratories isotopically labeled MPFAC-24ES PFAS mixture containing 13C3-PFHxS. Samples were quantitated against PFHxS matrix-matched calibration curves containing a minimum of 5 points spanning the range […]

rats = details: cited from earlier work
Sprague Dawley rats [5] = experiment: 5-day repeat dose in vivo study, survival; design: species or system rat; details: 0.01 to 100 mg/kg/day oral gavage once daily for five days; both sexes
Excerpt: as §1, with “Blood was collected via cardiac puncture with tripotassium ethylene diamine tetraacetic acid (K3EDTA) as an anti-coagulant and centrifuged to collect cell-free plasma. Liver was collected and flash-frozen in liquid nitrogen. Liver, plasma, and dosing formulation samples were frozen at the USEPA Center for Computational Toxicology and Exposure (CCTE), Durham, NC, USA. Tissue samples (plasma and liver, n = 96 each) were stored at ≤−70 °C prior to extraction; dosing formulation samples (n = 9) were stored at −20 °C.” left out

Row | SMILES | Human liver/plasma partitioning Kp [1] | Plasma binding of PFHxSA higher than PFHxS [2] [fold] | Increase in mRNAs of CYP450 isoforms 3A2, 4A1, and 2J4 ([3]; rat liver) [fold] | Lowest observed transcriptional effect level, CYP450 isoforms 3A2, 4A1, and 2J4 [3] [mg/kg/day] | rT3 in female rat plasma (Sprague Dawley rats [4]; all doses) | rT3 in male rat plasma (Sprague Dawley rats [4]; detected sporadically) | Dose with plasma T4 statistically different from controls (Sprague Dawley rats [4]; female rats) [mg/kg/day] | Dose with plasma T3 statistically different from controls (Sprague Dawley rats [4]; male and female rats) [mg/kg/day] | Dose from which plasma T4 was significantly decreased (Sprague Dawley rats [4]; male rats) [mg/kg/day] | Exposures at which changes in THs occur (Sprague Dawley rats [4]; rats) [mg/kg/day] | Doses at which transcriptional pathway changes are observed in multiple tissues (rats) | Benchmark dose for relative liver weight changes (rats; rats, ref Auerbach et al. [40]) [mg/kg/day] | Exposures at which mortality was observed in a 5-day study (rats; ref Auerbach et al. [40]) | Survival (Sprague Dawley rats [5])
1 | O=S(=O)(O)C(F)(F)C(F)(F)C(F)(F)C(F)(F)C(F)(F)C(F)(F)F [PFHxS, perfluorohexane sulfonic acid] | 0.12 | – | – | – | – | – | – | – | – | – | – | – | – | –
2 | NS(=O)(=O)C(F)(F)C(F)(F)C(F)(F)C(F)(F)C(F)(F)C(F)(F)F [PFHxSA, Perfluorohexanesulfonamide] | – | 2.25 | ≥ 2 | 30 | not detected | no dose-responsive effect | 100 | 100 | 10 | ≥ 10 | less than 1 mg/kg/day | 16.25 | above 100 mg/kg/d | All rats survived to termination
